From US20260345838A1, “IDENTIFICATION AND/OR TREATMENT OF CANCER” (CLARITY PHARMACEUTICALS LIMITED, priority 2022, published 2026)
Where “and” joins values, the source holds several entries; their conditions need not be identical. Equal entries are not always repeated.

Legend:
prostate cancer = experiment: PET imaging in post-radical prostatectomy prostate cancer patients with serial negative PSMA-PET; format: in vivo, human; conditions: FIGS. 7 to 10
Description: (§1) A dose of 200 MBq ^64Cu-Sar-BBN was administered to a subject by slow intravenous bolus injection. The subject was imaged by PET/CT and the images analysed to determine the location, size and volume of any cancerous lesions present, which is indicated by the decay products of the ^64Cu radioisotope detected.
All patients received on average 200 MBq of [^64Cu]Cu-SAR-BBN intravenously with 60 minutes for uptake. Patient were scanned at 60-180 minutes post-injection with arms up, from vertex to mid thighs and at each bed position for two minutes. A low dose CT scan was performed with for attenuation correction and anatomical localisation. Comparison of the images obtained from each subject after administration of both ^18FDG and ^64Cu-Sar-BBN can be seen in FIGS. 7 to 10.

[1] = test system: metastatic ER+/PR+/HER2− breast cancer; experiment: PET imaging in women with metastatic ER+/PR+/HER2− breast cancer; format: in vivo, human
Description: Example 5—Administration of ^64Cu-Sar-BBN for Radioimaging
as §1
Women with clinical progression of metastatic ER+/PR+/HER2− breast cancer requiring re-staging were administered ^18FDG and images of each patient acquired by PET. Imaging with ^64Cu-Sar-BBN PET (with 200 MBq ^64Cu-Sar-BBN administered by IV injection) was performed within 2 weeks of imaging by ^18FDG. Qualitative interpretation of the PET studies was performed by accredited nuclear medicine physicians. Quantitative analysis was performed using MIM Software, Cleveland. Comparison of the images obtained from each subject after administration of both ^18FDG and ^64Cu-Sar-BBN can be seen in FIGS. 1 to 6 (see Table 1).

[2] = test system: metastatic ER+/PR+/HER2− breast cancer; conditions: compared to triple negative subtypes; cited from earlier work
[3] = 18FDG PET, per patient, listed as FDG

## O=C(O)CCc1ccc(O)c(CN(CCN(CC(=O)O)Cc2cc(CCC(=O)NCCCCCC(=O)NCCCC[C@H](NC(=O)N[C@@H](CCC(=O)O)C(=O)O)C(=O)O)ccc2O)CC(=O)O)c1.[Ga+3] [^68Ga-PSMA-11]
Prostate cancer
  lesion detection: serial negative PSMA-PET

## OC[C@H]1OC(O)[C@H]([18F])[C@@H](O)[C@@H]1O (stereo partly shown) [^18FDG]
[1]; [3]
  FDG SUVmax: 7 (2×) and 20 and <3 and 8 and 11
  FDG TTV (total tumor volume): 91 and 168 and 0 and 8 and 2 and 504
[1]; breast cancer patients, FIGS. 1 to 6
  lesion detection compared with the other imaging: did not reveal any tumors
[1]; patient of FIG. 4
  number of lesions identified: less than 3
Prostate cancer
  lesion detection: failed to identify any recurrent lesions
[2]
  sensitivity of 18FDG-PET for ER+/PR+ breast cancer: lower sensitivity for ER+/PR+ breast cancer, when compared to triple negative
